{
  "source": "paper PMC12990037",
  "about": "“Discovery of Two Structurally Distinct Classes of Inhibitors Targeting the Nuclease MUS81 and Enhancing Efficacy of Chemotherapy in Cancer Cells” (Journal of Medicinal Chemistry, 2026)",
  "assay_type_in_all_cases": "cell-based",
  "key": {"U2OS, HEK293, and CAL51": {"tested_on": "U2OS, HEK293, and CAL51", "assay": "Cell proliferation assay (CyQUANT), combination with cisplatin", "settings": "cotreatment with cisplatin, 5 days", "protocol": "7 MUS81 inhibitors synergize with cisplatin to reduce cancer cell viability. (A,B) U2OS cells were treated with DMSO, MU262, or MU876 at the indicated concentrations in combination with a range of cisplatin (0–5 μM) for 96–120 h. Cell viability was assessed by the Cy-Quant assay. The survival was normalized to the DMSO-treated control. Graphs were generated in Graphpad Prism using the nonlinear regression fitting model. n ≥ 3, error bars represent s.d. (C) CAL51 WT cells were treated with DMSO, MU262, or MU876 at the indicated concentrations at each passage over 2 weeks. Cisplatin (12 μM) was added for the last 24 h before harvest. DNA damage was assessed by quantifying γH2AX foci using fluorescence microscopy and CellProfiller software. Data were visualized plotted in R software. Red markers represent the median of γH2AX foci number per nucleus; blue markers represent the percentage of cells with ≥20 γH2AX foci per nucleus. n = 3, error bars represent s.d.; ****p <0.0001 (unpaired, two-tailed t-test). TEXT PRINTED IN THE PICTURE: (C) D: γH2AX foci: 2.4 (DMSO); γH2AX foci: 59.6 (Cisplatin) | (C) MU262: γH2AX foci: 2.3 (1 μM; DMSO); γH2AX foci: 3 (2 μM; DMSO); γH2AX foci: 55.4 (1 μM; Cisplatin); γH2AX foci: 43.2 (2 μM; Cisplatin) | (C) MU876: γH2AX foci: 2.8 (0.25 μM; DMSO); γH2AX foci: 0.9 (0.5 μM; DMSO); γH2AX foci: 48.2 (0.25 μM; Cisplatin); γH2AX foci: 42.6 (0.5 μM; Cisplatin) DOUBTS OF THE COPYIST ABOUT THIS PICTURE: Panel C: the numbers in the blue markers have no measure or unit of their own printed in the picture; the axis title 'γH2AX foci' is given as the measure, but the numbers may stand for another quantity. / Panel C: 'D' is a control column with no concentration; it may not count as a substance. / Panel C: small white print on blue markers; 59.6, 55.4, 48.2, 43.2, 42.6, 2.8 and 0.9 are best readings (3, 5, 6, 8 and 9 are hard to tell apart).\nCAL51 WT, CAL51 MUS81^–/–, U2OS, and HEK293 cells were seeded in a 96-well plate and treated with the respective concentration of selected inhibitors. […]"}, "ALT-positive U2OS cells": {"tested_on": "ALT-positive U2OS cells", "assay": "Detection of TFEs by FISH on metaphase spreads", "settings": "48 h", "protocol": "(§1) 5 Small-molecule inhibitors of MUS81 mimic the effect of siRNA-mediated MUS81 depletion in cells. (A) U2OS cells were treated with DMSO, MUS81-targeting siRNA, MU262, MU876, or their respective control analogues for 48 h. Cytochalasin B (1.25 μg/mL) was added 16 h before harvest to prevent cytokinesis. […] (B) Representative images corresponding to the selected conditions from (A). (C) U2OS and (D) HeLa cells were incubated with DMSO, the indicated inhibitors, and their respective control analogues for 48 h. Nocodazole (200 ng/mL) was added for 5 h prior to the end of treatment to arrest cells in mitosis. Mitotic cells were collected by shake-off, and telomere fragility events (TFEs) were quantified manually for each metaphase spread. At least 70 metaphase spreads were quantified per condition. n = 3; error bars represent s.d.; ***p < 0.001, ****p < 0.0001 (ordinary One-way ANOVA).\n(§2) U2OS and HeLa cells were seeded in 10 cm dishes. The next day, the medium was changed, and compounds were added at desired concentrations. This process was repeated after 43 h except that compounds were added together with 200 ng/mL of nocodazole. Cells were collected 5 h later by shake-off and incubated in 75 mM KCl at 37 °C for 10 min. Chromosomes were fixed in ice-cold methanol/acetic acid (3:1) and spread on glass slides. Slides were then treated with 20 μg/mL RNase A (Sigma-Aldrich), in 1x PBS at 37 °C for 1 h, fixed in 4% formaldehyde (Sigma-Aldrich) in 1x PBS for 2 min, and treated with 70 μg/mL pepsin (Sigma-Aldrich) in 2 mM glycine, pH 2 (Sigma-Aldrich) at 37 °C for 5 min. Slides were fixed again with 4% formaldehyde in 1x PBS for 2 min, incubated subsequently in 70%, 90%, and 100% ethanol for 5 min each, and air-dried. A C-rich telomeric PNA probe (5′-AF568-OO-p4[…]-3′; Panagene) diluted in hybridization solution (10 mM Tris–HCl pH 7.2, 70% formamide, 0.5% blocking solution (Roche)) was applied onto the slides followed by incubation at 80 °C for 5 min and at room temperature for 2 h. Slides were washed twice in 10 mM Tris–HCl pH 7.2, 70% formamide, and 0.1% BSA and three times in 100 mM Tris–HCl pH 7.2, 150 mM NaCl, and 0.08% Tween-20 at room temperature for 10 min each. DNA was counterstained with 100 ng/mL DAPI (Sigma-Aldrich) in 1x PBS and slides were mounted in Vectashield (Vector Labs). Images were acquired with a Zeiss Cell Observer equipped with a cooled Axiocam 506 m camera and a 63X/1.4NA oil DIC M27 PlanApo N objective. Image analysis was performed using ImageJ and Photoshop software (Adobe Inc.)."}, "HeLa cells": {"tested_on": "HeLa cells", "assay": "Detection of TFEs by FISH on metaphase spreads", "settings": "48 h", "protocol": "as §1, §2"}},
  "data": [
    {"smiles": "Cc1cc(=O)[nH]c(-n2nc(-c3ccccc3)cc2NC(=O)c2cc(-c3ccccc3)on2)n1", "note": "[Compound 32, N-(1-(4-Methyl-6-oxo-1,6-dihydropyrimidin-2-yl)-3-phenyl-1H-pyrazol-5-yl)-5-phenylisoxazole-3-carboxamide]", "values": [
      {"measurement": "enhancement of cisplatin-induced decrease of viability", "setting": "U2OS, HEK293, and CAL51", "value": "further enhanced by cotreatment with both MUS81 inhibitors in a dose-dependent manner"},
      {"measurement": "telomere-free ends (TFEs)", "setting": "ALT-positive U2OS cells", "value": "significantly increased the presence of telomere-free ends (TFEs)"},
      {"measurement": "telomere-free ends (TFEs)", "setting": "HeLa cells", "value": "but not in telomerase-positive and ALT-negative HeLa cells"}
    ]},
    {"smiles": "CCc1nn2c(O)c(-c3nc4ccccc4[nH]3)nnc2c1-c1ccc(F)cc1", "note": "[Compound 18, 3-(1H-Benzo[d]imidazole-2-yl)-7-ethyl-8-(4-fluorophenyl)pyrazolo[5,1-c][1,2,4]triazin-4-ol]", "values": [
      {"measurement": "enhancement of cisplatin-induced decrease of viability", "setting": "U2OS, HEK293, and CAL51", "value": "further enhanced by cotreatment with both MUS81 inhibitors in a dose-dependent manner"},
      {"measurement": "telomere-free ends (TFEs)", "setting": "ALT-positive U2OS cells", "value": "significantly increased the presence of telomere-free ends (TFEs)"},
      {"measurement": "telomere-free ends (TFEs)", "setting": "HeLa cells", "value": "but not in telomerase-positive and ALT-negative HeLa cells"}
    ]}
  ]
}
